Results on three compounds are retold here after US6172205A, “Synthetic process toward total synthesis of eleutherobin and its analogues and uses thereof” (The Trustees of Columbia in the City of New York, priority 1998, dated 2001).

“Also recorded” adds a separate entry of the source.

The test system of series [1] is Human non-small cell lung carcinoma cells, A549. The experiment in a line: Cytotoxicity by counting cells after 72 h, Taxol-sensitive cells. It is filed as cell-based. As to conditions: for IC50: Homo sapiens, A549, 72 h; for cytotoxicity (in words): sensitive cell lines (A549, SKOV3). Here is the method: Taxol-resistant and sensitive cell lines were seeded into 12-well plates at a density of 5×10^4 cells per well and allowed a period of 12 h for attachment prior to treatment. […] Cells were then trypsinized and counted (Coulter counter model ZF0031, Coulter Corp., Miami, Fla.).

Series [2] deals with A549-T12 (Taxol-resistant A549). The experiment in a line: Cytotoxicity by counting cells after 72 h, Taxol-resistant cells. As to conditions: for fold resistance relative to the parental cell line: A549-T12 vs A549, 4320 min; for IC50: Homo sapiens, Lung Carcinoma A549, Resistant (A549-T12), 72 h, mean of at least three independent experiments. It is filed as cell-based, human. As to the method:
(§1) Human non-small cell lung carcinoma cells, A549, were maintained in RPMI 1640 containing 10% fetal bovine serum and 1% penicillin-streptomycin (Gibco Laboratories, Grand Island N.Y.) at 37° C. in 7% CO2. The Taxol-resistant cell line A549-T12 was selected for resistance to Taxol and maintained in a final concentration of 12 nM drug (21). Human ovarian carcinoma cells SKOV3 and the MDR variant SKVBL (obtained from Dr. V. Ling) were maintained in α-mem plus ribonucleotides, deoxynucleotides, 15% fetal bovine serum and 1% penicillin-streptomycin (Gibco Laboratories) at 37° C. in 5% CO2. SKVBL cells were maintained in […] vinblastine (Sigma Chemical Co.).
(§2) Taxol-resistant and sensitive cell lines were seeded into 12-well plates at a density of 5×10^4 cells per well and allowed a period of 12 h for attachment prior to treatment. Cells were exposed to 10-fold serial dilutions of each compound (10^-10 to 10^-6 M) for 72 h. Cells were then trypsinized and counted (Coulter counter model ZF0031, Coulter Corp., Miami, Fla.). The IC50 was determined by plotting cell number against log of the drug concentration and this was used to determine the concentration of compound resulting in 50% growth inhibition compared to untreated cells. Each cell line was assayed in a minimum of 3 independent experiments with each compound and the results expressed as the mean IC50.
(§3) The cytotoxic efficacy of eleutherobin and its derivatives (FIG. 6) was evaluated in two drug sensitive human cancer cell lines and their Taxol-resistant counterparts. The results are summarized in Table I in order of decreasing potency. […] The Taxol-resistant cell line SKVBL overexpresses high levels of P-glycoprotein (22). […] The only difference between the two agents is the enantiomeric relationship in the carbohydrate (2'-acetylarabinose) sector (FIG. 6). […] This cell line expressed high levels of MDR1 resulting in Taxol-resistance equal or greater than 1666 -fold compared to the Taxol-sensitive SKOV3 cell line.
(§4) ^a Cytotoxicity determined by counting cells after 72 h drug exposure.

For series [3], the system named is Human ovarian carcinoma cells SKOV3. The experiment in a line: Cytotoxicity by counting cells after 72 h, Taxol-sensitive cells. It is filed as cell-based. As to conditions: SK-OV-3, 72 h. Here is the method: as §1, §2, §4
The test system of series [4] is SKVBL (MDR variant of SKOV3). The experiment in a line: Cytotoxicity by counting cells after 72 h, MDR variant cells. It is filed as cell-based, human. As to conditions: for IC50: Homo sapiens, SK-OV-3, Ovarian Carcinoma SKOV3, Resistant (SKVBL), 72 h, mean of at least three independent experiments; for cross-resistance in SKVBL (in words): MDR1 expressing cells, high P-glycoprotein; for fold resistance relative to the parental cell line: SKVBL vs SKOV3. As to the method: as §1, §2, §3, §4

Series [5] deals with tubulin / microtubule protein. In words: Tubulin polymerization by turbidity at 350 nm in the absence of GTP. As to conditions: 10 μM, relative to eleutherobin. It is filed as biochemical, calf. Here is the method:
Eleutherobin and its derivatives were synthesized as described (18,19). Taxol was obtained from the Drug Development Branch, National Cancer Institute (Bethesda, Md.). All compounds were dissolved in dimethyl sulfoxide (Sigma Chemical Co., St. Louis, Mo.) at stock concentrations of 5 mM and stored at -20° C. All control samples contained an equal volume of DMSO. GTP was obtained from Sigma Chemical Co. And dissolved in sterile distilled water at a concentration of 10 mM and stored at -20° C. Microtubule protein was purified from calf brains by two cycles of temperature-dependent assembly and disassembly (20) and stored in liquid nitrogen prior to use. The anti-mouse β-tubulin monoclonal antibody T-4026 was obtained from Sigma Chemical Co.
The ability of each compound to polymerize tubulin was evaluated by recording the change in turbidity of microtubule protein at 350 nm for 80 min in a spectrophotometer (UVIKON, Research Instruments Int., SD, Calif.). One mg of purified microtubule protein was diluted in assembly buffer containing 0.1 M MES, 1 mM EGTA, 0.5 mM MgCl2 and 3 M glycerol, pH 6.6. All compounds were evaluated at a concentration of 10 μM at 37° C. […] Microtubule stability was assessed by the addition of 10 mM Ca^++. changes from t=0-10 min were used to calculate initial slopes from the linear portion of each curve. These values were used to calculate the activity of each compound (relative to the activity of Taxol which was assigned a value of 100%).
The polymerization activity of these compounds was also assessed by determining the slope of the linear portion of each curve at A350 nm (t=0-10 min), and expressing this relative to Taxol (which was assigned a value of 100% (FIG. 8). The order of activity of eleutherobin and derivatives using this method, corroborates the results obtained from cytotoxicity studies.

The test system of series [6] is cellular microtubules, NIH 3T3 cells. The experiment in a line: Microtubule bundle formation by immunofluorescence. It is filed as cell-based. As to conditions: 2 μM, 5.5 h, 37 °C. Here is the method: FIG. 9 immunofluorescence images NIH3T3 cells labeled with β-tubulin antibody following exposure to different drugs. A)DMSO; B)2 μM Taxol; C)2 μM eleutherobin; D)2 μM neo-eleutherobin; E)2 μM SKBII.294; F)2 μM SKBIII.13.
Illustrates the effects of eleutherobin and its derivatives on the morphology of cellular microtubules following exposure of cells to 2 μM of each compound for 5.5 h at 37° C. […] The number of micotic asters correlated with the extent of microtubule bundling in interphase cells.
(§5) NIH 3T3 cells were grown to subconfluency on glass converslips in 35 mm plastic petri dishes. Cells were exposed to 2 μM of Taxol and each of the experimental compounds for 5.5 h at 37° C., rinsed twice in PBS and extracted with 0.5% Triton-X-100 in microtubule stabilizing buffer (PEM) (100 mM PIPES, 2 mM EGTA and 2 mM MgCl2, pH 6.8) for 4 min. Following a wash in PEM, the cells were fixed for 40 min at room temperature in 3% formaldehyde in PEM followed by incubation in 0.1 M glycine in PBS for 10 min and washing (four times) in PEM containing 5 μM EGTA. Following blocking in 20% normal goat serum (NGS) for 30 min at room temperature, cells were incubated for 1 h at 37° C. with a 1:100 dilution of β-tubulin mAb diluted in 10% NGS, washed twice in 1% BSA, once in PBS and three times in 1% BSA. Cells were then incubated in a 1:200 dilution of the secondary fluorophore antibody, IndocarbocyanineCY3 (Jackson Immunoresearch Laboratories Inc., Pa.) in 20% NGS for 20 min at room temperature. Finally cells were washed three times in 1% BSA and the dried slides mounted in 30% glycerol in PBS containing […]-phenylene diamine (1 mg/ml). Fixed slides were examined using a Zeiss Axioskop microscope.

Series [7] is described as follows: Solubility compared to eleutherobin. It is filed as physicochemical.
The test system of another series is P-glycoprotein. In words: P-glycoprotein substrate behaviour inferred from resistance of SKVBL cells. It is filed as cell-based, human. Here is the method:
as §1, §2, §3

The conditions of series [8]: SKBII.294 and 298 structures compared; cited from earlier work.
Series [9] can be described thus: Overall biological activity, all parameters tested. As to the method: as §2
The ability of each compound to polymerize tubulin was evaluated by recording the change in turbidity of microtubule protein at 350 nm for 80 min in a spectrophotometer (UVIKON, Research Instruments Int., SD, Calif.). One mg of purified microtubule protein was diluted in assembly buffer containing 0.1 M MES, 1 mM EGTA, 0.5 mM MgCl2 and 3 M glycerol, pH 6.6. All compounds were evaluated at a concentration of 10 μM at 37° C. GTP was used at a final concentration of 1 mM. Microtubule stability was assessed by the addition of 10 mM Ca^++. changes from t=0-10 min were used to calculate initial slopes from the linear portion of each curve. These values were used to calculate the activity of each compound (relative to the activity of Taxol which was assigned a value of 100%).
as §5

The term IC50 denotes the concentration needed to halve the response being measured. Regarding `CO[C@]12C=C[C@](C)(O1)[C@@H](OC(=O)/C=C/c1cn(C)cn1)C[C@H]1C(C)=CC[C@H](C(C)C)[C@H]1C=C2COC(C)=O` [SKBII.294], in [1], the IC50 was 152 nM and the “cytotoxicity (in words)” value is recorded as “less cytotoxic than either eleutherobin or neo-eleutherobin; also recorded: more cytotoxic than to SKBII.296”. Further, in series [2], the “fold resistance relative to the parental cell line” value is listed as 1.1 fold and the IC50 came to 162 nM. This compound also had an IC50 in [3] of 307 nM. For the same compound, in series [4], the IC50 turned out to be 1040 nM, the “cross-resistance in SKVBL (in words)” value is reported as “essentially not cross-resistant” and the “fold resistance relative to the parental cell line” value was found to be 3.4 fold. For the same compound, in series [5], the “microtubule polymerization activity relative to eleutherobin” value was 54%. Moreover, the “microtubule bundle formation (in words)” value in series [6] was “reduced bundle formation in cultured cells; also recorded: induced less bundle formation than neo-eleutherobin”. Moreover, the “solubility (in words)” value in series [7] was “reduced solubility compared to eleutherobin”. The “P-glycoprotein substrate (in words)” value in the series on P-glycoprotein is “considerably less attractive for P-glycoprotein compared to eleutherobin and neo-eleutherobin”. Moreover, the “activity reported for compounds with the same structures (in words)” value in series [8] is reported as “equal activity”.

In the case of `CO[C@]12C=C[C@@H]3[C@@H](C(C)C)CC=C(C)[C@@H]3C[C@H](OC(=O)/C=C/c3cn(C)cn3)[C@](C)(C=C1)O2` [SKBII.296], the IC50 in series [1] was found to be 400 nM; in [2], 4000 nM; in series [3] it was 1630 nM; in series [4], 1350 nM. Moreover, in series [1], the “cytotoxicity (in words)” value is listed as “less cytotoxic than either eleutherobin or neo-eleutherobin”. Further, the “fold resistance relative to the parental cell line” value in series [2] amounted to 10 fold; in series [4] it was 0.8 fold. In addition, the “cross-resistance in A549-T12 (in words)” value in [2] (Taxol-resistant, not expressing P-glycoprotein) is “considerable cross-resistance”. Also, the “cross-resistance in SKVBL (in words)” value in series [4] is “no cross resistance to SKVBL cells”. In addition, in series [5], the “microtubule polymerization activity relative to eleutherobin” value was determined as 54%. The “microtubule bundle formation (in words)” value in series [6] is listed as “reduced bundle formation in cultured cells; also recorded: induced less bundle formation than neo-eleutherobin”. The “solubility (in words)” value in [7] was “reduced solubility compared to eleutherobin”. In addition, the “P-glycoprotein substrate (in words)” value in the series on P-glycoprotein is “considerably less attractive for P-glycoprotein compared to eleutherobin and neo-eleutherobin”.

`CO[C@]12C=C[C@](C)(O1)[C@@H](OC(=O)/C=C/c1cn(C)cn1)C[C@H]1C(C)=CC[C@H](C(C)C)[C@H]1C=C2CO` [SKBII.298]: in series [1], the IC50 was 1060 nM and the “cytotoxicity (in words)” value is “considerably less cytotoxic (in the μM range)”. Moreover, the half-maximal inhibitory concentration (IC50) in series [3] was > 5000 nM. In addition, the “microtubule polymerization activity relative to eleutherobin” value in series [5] is 36%. In [6], the “microtubule bundle formation (in words)” value is recorded as “induced less bundle formation than neo-eleutherobin”. For the same compound, the “solubility (in words)” value in series [7] is given as “reduced solubility compared to eleutherobin”. The “biological activity (in words)” value in series [9] is “the least active compound in this sub-group”. In addition, the “activity reported for compounds with the same structures (in words)” value in series [8] was “equal activity”.
